Assay results published in patent US8859599B2, “Androgen receptor modulating compounds, preparation and uses thereof” (priority 2009, dated 2014).

Experiments:
[1] = test system: DU145; test: SRB cytotoxicity on DU145 cells; type: cell-based, human; details: DU145 cells (no AR), 144 h exposure
Method: (§1) Finally, compounds were also tested on HepG2 cells, originally isolated from a primary hepatoblastoma of a child, purchased from ATCC.
(§2) Sulforhodamine B (SRB) assay was used according to the method by Skehan et al. (JNCI, 1990). Briefly, cells were collected by trypsinization, counted and plated at a density of 5,000 cells/well in 96-well flat-bottomed microtiter plates (100 μl of cell suspension/well). In the chemosensitivity assay, experiments were run in octuplicate, and each experiment was repeated three times. The optical density (OD) of cells was determined at a wavelength of 490 nm by a colorimetric plate reader.
(§3) Growth inhibition and cytocidal effect of drugs were calculated according to the formula reported by Monks et al. (JNCI, 1991): [(ODtreated−ODzero)/(ODcontrol−ODzero)]×100%, when ODtreated is > to ODzero. If ODtreated is above ODzero, treatment has induced a cytostatic effect, whereas if ODtreated is below ODzero, cell killing has occurred. The ODzero depicts the cell number at the moment of drug addition, the ODcontrol reflects the cell number in untreated wells and the ODtreated reflects the cell number in treated wells on the day of the assay. TUNEL Assay
(§4) The authors tested the antitumour activity of the compounds also on PC-3 and DU145 cancer cell lines, representative of hormone-refractory prostate cancer due to AR receptor absence.

[2] = test system: normal stem cells derived from human peripheral blood stem cells; test: Colony-forming cell assay (GM-CFU); type: cell-based; details: highest concentration tested, 14 days incubation
Method: The colony-forming cell assay was used as previously described [Motta M R et al., Exp Hematol 1997; 25:1261-1269]. In brief, for each molecule, 5×10^4 cells were plated in duplicate in a complete culture medium (MethoCult H4434, StemCell Technologies, Vancouver, Canada) containing different concentrations (0.2, 2, and 20 μmol/l) of the compound. After 14 days of incubation in a humidified atmosphere of 5% CO2 at the temperature of 37° C., granulocyte macrophage colony-forming unit (GM-CFU) aggregates of more than 50 cells were counted. Control cells were incubated under the same conditions but in drug-free medium.
The authors also evaluated the potential toxicity of some of the novel compounds in normal cells as the ability of the drugs to inhibit clonogenic growth of normal stem cells derived from human peripheral blood stem cells (FIG. 37). The exposure of hematopoietic precursor to the compounds, caused low ((S)-37) or negligible (, (R)-22, (R)-23, (R)-10) toxicity at the highest concentration tested.

[3] = test system: LNCaP cells; test: Sulforhodamine B (SRB) in vitro chemosensitivity assay on LNCaP cells; type: cell-based; details: for GI50 / LC50: Homo sapiens, LNCaP; for GI50: read-out: Growth inhibition (GI50), LNCaP cells, 144 h exposure; for LC50: read-out: cytocidal effects by 50% (LC50), LNCaP cells, 144 h exposure, n.r. = not reached; for cytocidal (cell killing) activity: 144 h exposure
Method: as §2, §3
The authors examined the antitumour activity of the compounds for which the synthesis is described above, in the hormone-sensitive prostate cancer cell line LNCaP. (R)-Bicalutamide and the novel compounds were tested at the increasing concentrations of […]. The highest dose used was chosen on the basis of the clinically achievable peak plasma concentration reported in the literature for bicalutamide (Cockshott I D. Clin Pharmacokinet. 2004; 43 (13) 855-78).
After 144-hr exposure time, the cytotoxic effect of the molecules was calculated according to the method of Monks et al. (Monks A, et al., J. Nat. Cancer Inst. 1991; 83: 757-66).

[4] = test system: LNCaP cells; test: TUNEL assay of apoptotic cells in LNCaP; type: cell-based, human; details: 144-h exposure, 20.0 μM
Method: Cells were fixed in 1% paraformaldehyde in PBS on ice for 15 min, suspended in ice cold ethanol (70%) and stored overnight at −20° C. Cells were then washed twice in PBS and resuspended in PBS containing 0.1% Triton X-100 for 5 min at 4° C. Thereafter, samples were incubated in 50 μl of solution containing TdT and FITC-conjugated dUTP deoxynucleotides 1:1 (Roche Diagnostic GmbH, Mannheim, Germany) in a humidified atmosphere for 90 min at 37° C. in the dark, washed in PBS, counterstained with propidium iodide (2.5 μg/ml, MP Biomedicals, Verona, Italy) and RNAse (10 Kunits/ml, Sigma Aldrich, Milan, Italy) for 30 min at 4° C. in the dark and analyzed by flow cytometry.
After the end of drug exposures, medium was removed and cells were detached from the flasks by trypsin treatment, washed twice with PBS and stained according to the different methods specified below. Flow cytometric analysis was performed using a FACS Canto flow cytometer (Becton Dickinson, San Diego, Calif.). Data acquisition and analysis were performed using FACSDiva software (Becton Dickinson). Samples were run in triplicate and 10,000 events were collected for each replica. Data were the average of three experiments, with errors under 5%.
The cells, before TUNEL assay, were continuously exposed to the anti-androgen compounds for 144 hours at the concentration of 20.0 μM.

[5] = test system: PC-3; test: SRB cytotoxicity on PC-3 cells; type: cell-based, human; details: PC-3 cells (no AR), 144 h exposure
Method: as §1, §2, §3, §4

[6] = test system: LNCaP-AR cells; test: TUNEL assay of apoptotic cells in LNCaP-AR; type: cell-based, human; details: 20.0 μM; for Apoptotic cells (%): LNCaP-AR, 144-h exposure, TUNEL
[7] = test system: HepG2 cells; test: Cytotoxic activity on hepatoblastoma cell line HepG2; type: cell-based, human; details: up to highest concentration tested
Method: as §1, §2, §3
(§5) The authors evaluated in vitro the potential hepato-toxicity of some of the novel compounds on HepG2 cell line, a human hepatoblastoma cell line that retains the specialized function of normal hepatocytes [Knowles B B, et al., Science 1980, 209:497-499; Aden D P, et al., Nature, 1979, 282:615-616].

[8] = target: T1, human androgen receptor (hAR) (Homo sapiens, UniProt P10275); test: hAR transactivation assay (ARE-luciferase reporter) in Cos-7 cells; type: cell-based
T1 construct: The cDNA coding hAR was cloned into the pSG5 expression vector as reported previously; expressed in transfected cells; host or cells: Cos-7 cells transiently transfected with pSG5-hAR
T1 sequence (P10275 1-920): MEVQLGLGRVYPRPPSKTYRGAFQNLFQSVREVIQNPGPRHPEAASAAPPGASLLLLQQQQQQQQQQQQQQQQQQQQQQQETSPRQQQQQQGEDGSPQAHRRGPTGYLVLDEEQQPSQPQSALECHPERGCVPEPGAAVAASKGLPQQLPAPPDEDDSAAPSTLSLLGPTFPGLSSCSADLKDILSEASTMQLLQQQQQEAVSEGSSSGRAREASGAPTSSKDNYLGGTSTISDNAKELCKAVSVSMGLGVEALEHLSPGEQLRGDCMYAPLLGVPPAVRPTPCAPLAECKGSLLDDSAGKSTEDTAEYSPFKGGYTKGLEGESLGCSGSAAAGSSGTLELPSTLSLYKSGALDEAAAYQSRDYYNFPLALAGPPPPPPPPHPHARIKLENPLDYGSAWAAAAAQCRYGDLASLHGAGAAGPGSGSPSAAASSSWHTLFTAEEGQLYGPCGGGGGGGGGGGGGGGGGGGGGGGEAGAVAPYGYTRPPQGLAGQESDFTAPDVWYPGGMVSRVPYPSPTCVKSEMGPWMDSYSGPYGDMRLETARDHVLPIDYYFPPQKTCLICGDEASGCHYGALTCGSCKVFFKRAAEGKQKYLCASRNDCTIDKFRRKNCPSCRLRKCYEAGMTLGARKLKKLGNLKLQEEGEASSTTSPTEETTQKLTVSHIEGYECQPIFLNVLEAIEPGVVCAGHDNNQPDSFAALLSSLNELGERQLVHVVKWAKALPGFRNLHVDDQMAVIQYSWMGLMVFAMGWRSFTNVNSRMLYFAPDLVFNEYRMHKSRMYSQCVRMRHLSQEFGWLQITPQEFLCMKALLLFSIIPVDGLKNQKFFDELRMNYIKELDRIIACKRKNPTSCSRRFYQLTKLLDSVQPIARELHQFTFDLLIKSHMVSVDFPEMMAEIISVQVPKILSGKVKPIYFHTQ
Method: The cDNA coding hAR was cloned into the pSG5 expression vector as reported previously [Chang, C. S., et al., Science (1988)240:324-326]. The 3416 construct (ARE-Luc), containing four copies of the wild-type slp-HRE2 (5′-TGGTCAgccAGTTCT-3′) (SEQ ID No. 1) was cloned in the NheI site in pTK-TATA-Luc [Verrijdt, G. et al., J. Biol. Chem. (2000)275:12298-12305].
For androgen-stimulated transcriptional analysis, 32×10^4 Cos-7 cells were plated in phenol red-free DMEM containing 5% charcoal-stripped serum. After 48 h, the cells were transfected by Superfect (Qiagen) with 0.3 μg of 3416-pTK-TATA-Luc construct, together with 1.5 μg of either pSG5-empty plasmid or pSG5-hAR expressing plasmid. After 18 h, transfected cells were stimulated for 24 h with 10 nM of the synthetic androgen, R1881 (from Perkin-Elmer; dissolved in 0.001% ethanol, final concentration), in the absence or presence of the indicated concentrations of synthetic compounds. When indicated, the synthetic compounds were added alone to the cell medium. […] It was dissolved in 0.001% (final concentration) ethanol. Control cells were treated with the vehicle alone. Lysates were prepared and the luciferase activity was measured using a luciferase assay system (Promega). The results were corrected using CH110-expressed beta-galactosidase activity (Amersham Biosciences) and luciferase activity was expressed as fold induction. Results were obtained from two or three different experiments, each performed in duplicate. Mean and SEM are shown.

[9] = Cytotoxic activity on hepatoblastoma cell line HepG2; type: cell-based, human; details: human, HepG2 cells
Method: as §1, §2, §3, §5

SMILES | cytotoxic properties compared to effects on LNCaP and LNCaP-AR cells [1] | toxicity: inhibition of clonogenic growth of hematopoietic precursors [2] | GI50 ([3]; 144 h) | LC50 ([3]; 144 h) | cytocidal (cell killing) activity ([3]; LNCaP cells) | Apoptotic cells (%) [4] | cytotoxic properties compared to effects on LNCaP and LNCaP-AR cells [5] | apoptosis induction in the LNCaP derivative cell line versus LNCaP ([6]; 144 h) | Apoptotic cells (%) [6] | potential hepato-toxicity [7] | inhibition of androgen-induced transcriptional activation (antagonistic activity) ([8]; cells challenged with 10 nM R1881, compound at 10 μM) | agonistic activity, compound alone ([8]; range between 100 nM-10 μM) | cytostatic effect: suppression of cell growth ([3]; LNCaP cells, 144 h, highest concentration tested) | GI50 [9] | LC50 (concentration killing 50% of cells) [9]
CS(=O)(=O)N[C@@](Cc1ccccc1)(CS(=O)(=O)c1ccc(F)cc1)C(=O)Nc1ccc(C#N)c(C(F)(F)F)c1 [(R)-10, (R)-2-benzyl-N-(4-cyano-3-(trifluoromethyl)phenyl)-3-(4-fluorophenylsulfonyl)-2-(methylsulfonamido)propanamide] | significant reduction in their cytotoxic proprieties | negligible | 7.4 µM | 17.7 µM | cytocidal activity | 35.5% | significant reduction in their cytotoxic proprieties | more active | 42.7% | negligible toxicity |  |  |  |  | 
CC(C)(C)S(=O)(=O)N[C@@](C)(CS(=O)(=O)c1ccc(F)cc1)C(=O)Nc1ccc(C#N)c(C(F)(F)F)c1 [(R)-22, (R)—N-(4-cyano-3-(trifluoromethyl)phenyl)-2-(1,1-dimethylethylsulfonamido)-3-(4-fluorophenylsulfonyl)-2-methylpropanamide] |  | negligible | 5.8 µM | 20 µM |  |  |  |  |  | negligible toxicity | antagonistic activity | functions as agonist | suppress completely the cell growth |  | 
N#Cc1ccc(N2C(=O)[C@](Cc3ccc(F)cc3)(c3ccccc3)NC2=S)cc1C(F)(F)F [(S)-37] | significant reduction in their cytotoxic proprieties | low | 5.8 µM | 16.8 µM | cytocidal activity | 93.4% | significant reduction in their cytotoxic proprieties |  | 89.5% | significant toxicity |  |  |  | 7.4 µM | 17.7 µM
